What all share (experiment): Anti-bacterial activity (MIC), agar dilution
What all share (type): cell-based
In general terms: In agar dilution, organisms are placed on agar that contains the substance at set levels.

Assay [1] relates to Escher. coli NIHJ. The settings on record: Escher. coli NIHJ, agar dilution, about 10^6 CFU/ml, 18 hours, 37° C. In a few lines: (§1)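 Agar dilution; MH broth overnight cultures → ~10^6 CFU/ml; spotted on MH agar with twofold serial drug dilutions; 18 h, 37° C; MIC in μg/ml.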
In assay [2] the test system is Kleb. pneumoniae EK-6. To be noted: Kleb. pneumoniae EK-6, agar dilution, about 10^6 CFU/ml, 18 hours, 37° C. In a few lines:
as §1

Assay [3] relates to Morganella morganii EP-14. To be noted: about 10^6 CFU/ml, 37° C. An outline of the steps:
as §1

In assay [4] the test system is Pseud. aeruginosa EP-01. To be noted: Pseud. aeruginosa EP-01, agar dilution, about 10^6 CFU/ml, 18 hours, 37° C. An outline of the steps: as §1
For assay [5], the system named is Ser. marcescens ES-75. The settings on record: Ser. marcescens ES-75, agar dilution, about 10^6 CFU/ml, 18 hours, 37° C. An outline of the steps:
as §1

In assay [6] the test system is Staph. aureus 209-P. The settings on record: Staph. aureus 209-P, agar dilution, about 10^6 CFU/ml, 18 hours, 37° C. An outline of the steps:
as §1

The mark [7] stands for this setting: Escherichia coli, 18 h, read-out: MIC.
[8] abbreviates: Klebsiella pneumoniae, EK6, 18 h, read-out: MIC.
The mark [9] stands for this setting: Morganella morganii, EP14, 18 h, read-out: MIC.
The mark [10] stands for this setting: Pseudomonas aeruginosa, EP01, 18 h, read-out: MIC.
Where [11] appears, read: Serratia marcescens, ES75, 18 h, read-out: MIC.
Setting [12] is: Staphylococcus aureus, 209P, 18 h, read-out: MIC.

≈ marks a conversion by molar mass, not a printed value. Like-named read-outs stand apart in the source and are kept apart here.

Usually MIC stands for the lowest concentration that inhibits growth of the organism.

`CNC(=O)C[N+](C)(C)C/C=C/C1=C(C(=O)[O-])N2C(=O)[C@@H](NC(=O)/C(=N\OCF)c3nsc(N)n3)[C@H]2SC1` [Example 55]: the minimal inhibitory concentration (MIC) in assay [1] (setting [7]) was no more than 0.025 µg/mL; in assay [2] (setting [8]), no more than 0.025 µg/mL; in assay [3] (setting [9]), no more than 0.025 µg/mL; in assay [4] (setting [10]), 0.4 µg/mL (≈ 0.719 µM); in assay [5] (setting [11]), no more than 0.025 µg/mL; in assay [6] (setting [12]), 0.2 µg/mL (≈ 0.359 µM).
As for `CN(C)C(=O)C[N+](C)(C)C/C=C/C1=C(C(=O)[O-])N2C(=O)[C@@H](NC(=O)/C(=N\OCF)c3nsc(N)n3)[C@H]2SC1` [Example 56], the MIC stood at 0.05 µg/mL (≈ 0.0876 µM) in assay [1] (setting [7]); 0.05 µg/mL (≈ 0.0876 µM) in assay [2] (setting [8]); 0.05 µg/mL (≈ 0.0876 µM) in assay [3] (setting [9]); 1.56 µg/mL (≈ 2.73 µM) in assay [4] (setting [10]); 0.1 µg/mL (≈ 0.175 µM) in assay [5] (setting [11]); 0.4 µg/mL (≈ 0.701 µM) in assay [6] (setting [12]).
As for `CNC(=O)[C@H](C)[N+](C)(C)C/C=C/C1=C(C(=O)[O-])N2C(=O)[C@@H](NC(=O)/C(=N\OCF)c3nsc(N)n3)[C@H]2SC1` [Example 58], the minimum inhibitory concentration (MIC) in assay [1] (setting [7]) is no more than 0.025 µg/mL; in assay [2] (setting [8]), 0.05 µg/mL (≈ 0.0876 µM); in assay [3] (setting [9]) it was 0.05 µg/mL (≈ 0.0876 µM); in assay [4] (setting [10]), 1.56 µg/mL (≈ 2.73 µM); in assay [5] (setting [11]), 0.05 µg/mL (≈ 0.0876 µM); in assay [6] (setting [12]), 0.2 µg/mL (≈ 0.35 µM).
In the case of `CNC(=O)[C@@H](C)[N+](C)(C)C/C=C/C1=C(C(=O)[O-])N2C(=O)[C@@H](NC(=O)/C(=N\OCF)c3nsc(N)n3)[C@H]2SC1` [Example 59], the MIC in assay [1] (setting [7]) is no more than 0.025 µg/mL; in assay [2] (setting [8]), no more than 0.025 µg/mL; in assay [3] (setting [9]) it was no more than 0.025 µg/mL; in assay [4] (setting [10]), 1.56 µg/mL (≈ 2.73 µM); in assay [5] (setting [11]), no more than 0.025 µg/mL; in assay [6] (setting [12]), 0.4 µg/mL (≈ 0.701 µM).
Turning to `C[N+](C)(C/C=C/C1=C(C(=O)[O-])N2C(=O)[C@@H](NC(=O)/C(=N\OCF)c3nsc(N)n3)[C@H]2SC1)[C@@H](CC(N)=O)C(N)=O` [Example 60], the minimal inhibitory concentration (MIC) in assay [1] (setting [7]) is no more than 0.025 µg/mL; in assay [2] (setting [8]), 0.05 µg/mL (≈ 0.0834 µM); in assay [3] (setting [9]), no more than 0.025 µg/mL; in assay [4] (setting [10]) it was 1.56 µg/mL (≈ 2.6 µM); in assay [5] (setting [11]), no more than 0.025 µg/mL; in assay [6] (setting [12]) it was 0.2 µg/mL (≈ 0.334 µM).
For the compound `C[N+](C)(C/C=C/C1=C(C(=O)[O-])N2C(=O)[C@@H](NC(=O)/C(=N\OCF)c3nsc(N)n3)[C@H]2SC1)[C@H](CC(N)=O)C(N)=O` [Example 61], the minimal inhibitory concentration (MIC) was 0.1 µg/mL (≈ 0.167 µM) in assay [1] (setting [7]); 0.05 µg/mL (≈ 0.0834 µM) in assay [2] (setting [8]); 0.1 µg/mL (≈ 0.167 µM) in assay [3] (setting [9]); 1.56 µg/mL (≈ 2.6 µM) in assay [4] (setting [10]); 0.05 µg/mL (≈ 0.0834 µM) in assay [5] (setting [11]); 0.4 µg/mL (≈ 0.667 µM) in assay [6] (setting [12]).
As for `C[N+](C)(C/C=C/C1=C(C(=O)[O-])N2C(=O)[C@@H](NC(=O)/C(=N\OCF)c3nsc(N)n3)[C@H]2SC1)[C@@H](CO)C(N)=O` [Example 62], the MIC in assay [1] (setting [7]) was no more than 0.025 µg/mL; in assay [2] (setting [8]), no more than 0.025 µg/mL; in assay [3] (setting [9]), no more than 0.025 µg/mL; in assay [4] (setting [10]), 0.4 µg/mL (≈ 0.699 µM); in assay [5] (setting [11]) it was no more than 0.025 µg/mL; in assay [6] (setting [12]) it was 0.2 µg/mL (≈ 0.349 µM).
Consider `C[N+](C)(C/C=C/C1=C(C(=O)[O-])N2C(=O)[C@@H](NC(=O)/C(=N\OCF)c3nsc(N)n3)[C@H]2SC1)[C@H](CO)C(=O)NCO` [Example 63], for which the MIC was no more than 0.025 µg/mL in assay [1] (setting [7]); 0.05 µg/mL (≈ 0.083 µM) in assay [2] (setting [8]); no more than 0.025 µg/mL in assay [3] (setting [9]); 0.8 µg/mL (≈ 1.33 µM) in assay [4] (setting [10]); no more than 0.025 µg/mL in assay [5] (setting [11]); 0.4 µg/mL (≈ 0.664 µM) in assay [6] (setting [12]).
As to `C[N+](C)(C/C=C/C1=C(C(=O)[O-])N2C(=O)[C@@H](NC(=O)/C(=N\OCF)c3nsc(N)n3)[C@H]2SC1)CCO` [Example 64], the MIC is no more than 0.025 µg/mL in assay [1] (setting [7]); no more than 0.025 µg/mL in assay [2] (setting [8]); no more than 0.025 µg/mL in assay [3] (setting [9]); 0.8 µg/mL (≈ 1.51 µM) in assay [4] (setting [10]); 0.1 µg/mL (≈ 0.189 µM) in assay [5] (setting [11]); 0.2 µg/mL (≈ 0.378 µM) in assay [6] (setting [12]).
As for `CC(O)C[N+](C)(C)CC=CC1=C(C(=O)[O-])N2C(=O)C(NC(=O)C(=NOCF)c3nsc(N)n3)C2SC1` (stereo not drawn) [Example 65], the MIC in assay [1] (setting [7]) is no more than 0.025 µg/mL; in assay [2] (setting [8]) it was no more than 0.025 µg/mL; in assay [3] (setting [9]) it was no more than 0.025 µg/mL; in assay [4] (setting [10]), 0.8 µg/mL (≈ 1.47 µM); in assay [5] (setting [11]), 0.05 µg/mL (≈ 0.092 µM); in assay [6] (setting [12]), 0.4 µg/mL (≈ 0.736 µM).
With `CC(O)C[N+](C)(C)CC=CC1=C(C(=O)[O-])N2C(=O)C(NC(=O)C(=NOCF)c3nsc(N)n3)C2SC1` (stereo not drawn) [Example 66], the minimum inhibitory concentration (MIC) is no more than 0.025 µg/mL in assay [1]; no more than 0.025 µg/mL in assay [2]; no more than 0.025 µg/mL in assay [3] (18 hours); 0.8 µg/mL (≈ 1.47 µM) in assay [4]; no more than 0.025 µg/mL in assay [5]; 0.4 µg/mL (≈ 0.736 µM) in assay [6].
